Some results are limits rather than exact numbers.

Test [1] concerns acute myelocytic leukemia (AML) cell line MV4-11. As to the kind of experiment: Oncology cell growth assay (3-day proliferation, CellTiter-Glo). The following applies: Homo sapiens, MV4-11, 72 h, MV4-11 cells, 3000 cells/well, compounds listed under IC50 range headings, read-out: MV411 IC50 (gIC50, inhibition of proliferation). It counts as cell-based. A digest of the protocol:
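Compounds were serially diluted 3-fold in DMSO, giving final well concentrations from 10 down to 0.0045 μM. MV4-11 cells were then seeded at 3000 cells/well in RPMI 1640 with 10% FBS and incubated 72 hours. CellTiter-Glo signal was measured and gIC50 obtained by four-parameter logistic regression.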
(Cellular ATP, detected with luciferase, serves as a proxy for viable cell number.)

Test [2] concerns the target T1, BRD4 Bromodomain 1 (BRD4 BD1) (Homo sapiens, UniProt O60885).
T1 construct: 44-168 and BRD4 BD2
Briefly: AlphaScreen binding assay, BRD4 BD1. The following applies: His-tagged BRD4 BD1 50 nM, biotinylated H4 (1-21) K5/8/12/16 tetra-acetylated peptide 50 nM, compounds listed under IC50 range headings. A digest of the protocol: (§1)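 Compound dilution series were mixed with His-tagged BRD4 bromodomain and biotinylated tetra-acetylated H4 (1-21) peptide at pH 7.3 (BD1 and peptide at 50 nM, BD2 and peptide at 100 nM). Donor and acceptor beads were then added, and plates were equilibrated at least 1 h before reading. IC50 values were fitted with a four-parameter logistic model.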
Background: Bead proximity is the source of the signal in Alpha formats.

In test [3] the target is T2, BRD4 Bromodomain 2 (BRD4 BD2) (Homo sapiens, UniProt O60885).
T2 construct: 333-460 were cloned, expressed, and purified to homogeneity
Briefly: AlphaScreen binding assay, BRD4 BD2. The following applies: His-tagged BRD4 BD2 100 nM, biotinylated H4 (1-21) K5/8/12/16 tetra-acetylated peptide 100 nM, compounds listed under IC50 range headings. A digest of the protocol: as §1

On to `CC(=O)N1c2ccc(-c3cnn(C4CC4)c3)c(OCCN3CCCS3(=O)=O)c2CC[C@@H]1C` [I-44, 2-(2-{[(2S)-1-acetyl-6-(1-cyclopropyl-1H-pyrazol-4-yl)-2-methyl-1,2,3,4-tetrahydroquinolin-5-yl]oxy}ethyl)-1λ^6,2-thiazolidine-1,1-dione], for which the IC50 in test [1] was 500 to 1000 nM; in test [2], 100 to 1000 nM; in test [3], less than 50 nM.
With `CC(=O)N1c2ccc(-c3cnn(C4CC4)c3)c(OCS(=O)(=O)N(C)C)c2CC[C@@H]1C` [I-46, (S)-(1-acetyl-6-(1-cyclopropyl-1H-pyrazol-4-yl)-2-methyl-1,2,3,4-tetrahydroquinolin-5-yloxy)-N,N-dimethylmethanesulfonamide], the IC50 lay in the range of 500 to 1000 nM in test [1], 1000 to 10000 nM in test [2] and 50 to 500 nM in test [3].
On to `CC(=O)N1c2ccc(-c3cnn(C4CC4)c3)c(OCC3CC3(F)F)c2CC[C@@H]1C` (stereo partly drawn) [I-48, 1-((S)-6-(1-cyclopropyl-1H-pyrazol-4-yl)-5-((2,2-difluorocyclopropyl)methoxy)-2-methyl-3,4-dihydroquinolin-1(2H)-yl)ethanone], for which the IC50 was less than 500 nM in test [1], less than 100 nM in test [2] and less than 50 nM in test [3].
Regarding `CC(=O)N1c2ccc(-c3cnn(C4CC4)c3)c(OCC3(CO)COC3)c2CC[C@@H]1C` [I-49, (S)-1-(6-(1-cyclopropyl-1H-pyrazol-4-yl)-5-((3-(hydroxymethyl)oxetan-3-yl)methoxy)-2-methyl-3,4-dihydroquinolin-1(2H)-yl)ethanone], the IC50 is greater than 1000 nM in test [1], 100 to 1000 nM in test [2] and less than 50 nM in test [3].
For `CC(=O)N1c2ccc(-c3cnn(C4CC4)c3)c(OCC3(F)COC3)c2CC[C@@H]1C` [I-50, (S)-1-(6-(1-cyclopropyl-1H-pyrazol-4-yl)-5-((3-fluorooxetan-3-yl)methoxy)-2-methyl-3,4-dihydroquinolin-1 (2H)-yl)ethanone] the same measures were 500 to 1000 nM, 100 to 1000 nM and less than 50 nM.
In the same order, the values of `CC(=O)N1c2ccc(-c3cnn(C4CC4)c3)c(OC3CC(F)(F)C3)c2CC[C@@H]1C` [I-51, (S)-1-(6-(1-cyclopropyl-1H-pyrazol-4-yl)-5-(3,3-difluorocyclobutoxy)-2-methyl-3,4-dihydroquinolin-1(2H)-yl)ethanone] are less than 500 nM, 100 to 1000 nM and less than 50 nM.
For `C[C@H]1CCc2c(ccc(-c3cn(C)nn3)c2OC2CCC2)N1C(=O)C1CC1` [I-53, (S)-(5-cyclobutoxy-2-methyl-6-(1-methyl-1H-1,2,3-triazol-4-yl)-3,4-dihydroquinolin-1 (2H)-yl)(cyclopropyl)methanone] the same measures were less than 500 nM, 100 to 1000 nM and less than 50 nM.
Consider `CC(=O)N1c2ccc(-c3cnn(C4CC4)c3)c(OC3CNC3)c2CC[C@@H]1C` [I-60, (S)-1-(5-(azetidin-3-yloxy)-6-(1-cyclopropyl-1H-pyrazol-4-yl)-2-methyl-3,4-dihydroquinolin-1(2H)-yl)ethanone], for which the IC50 is greater than 1000 nM in test [1], no less than 10000 nM in test [2] and no less than 500 nM in test [3].
For `COC(=O)N1c2ccc(-c3cnn(C4CS(=O)(=O)C4)c3)c(OC3CCC3)c2CC[C@@H]1C` [I-61, Methyl (S)-5-cyclobutoxy-6-(1-(1,1-dioxidothietan-3-yl)-1H-pyrazol-4-yl)-2-methyl-3,4-dihydroquinoline-1(2H)-carboxylate] the same measures were less than 500 nM, 100 to 1000 nM and 50 to 500 nM.
For `COC(=O)N1c2ccc(-c3cnn(C4CCCS(=O)(=O)C4)c3)c(OC3CCC3)c2CC[C@@H]1C` (stereo partly drawn) [I-62, Methyl (2S)-5-cyclobutoxy-6-(1-(1,1-dioxidotetrahydro-2H-thiopyran-3-yl)-1H-pyrazol-4-yl)-2-methyl-3,4-dihydroquinoline-1(2H)-carboxylate] the same measures were less than 500 nM, 100 to 1000 nM and less than 50 nM.

These data come from US10611750B2, “Tetrahydroquinoline compositions as bet bromodomain inhibitors” (FORMA Therapeutics, Inc., priority 2013, dated 2020).
